{"source": "patent US11760979B2", "about": "“Isolated liver cancer stem cell and method for drug screening thereof” (LICENSE BIOTECHNOLOGY Co., Ltd., priority 2020, dated 2023)", "key": {"TW-1 cell line [1]": {"tested_on": "TW-1 cell line", "experiment": "In vitro drug screening test (cell survival rate)", "format": "cell-based, rat", "method": "The purpose of the method of drug screening is to evaluate the inhibitory ability of the active ingredients of currently used anticancer drugs against the growth, recurrence, or metastasis of TW-1 cell line, and HTC cell line was used as control group. The active ingredient of anticancer drug be used in the embodiment was Sorafenib.\nTW-1 cell line and HTC cell line were seeded in 96-well plate with 2×10^5 cells/well, 1 μM, 5 μM, 10 μM, 20 μM and 40 μM of Sorafenib were respectfully used for treating cells once the cells were attached, and the negative control group cells were treated with PBS."}, "TW-1 cell line [2]": {"tested_on": "TW-1 cell line", "experiment": "In vivo drug screening test, TW-1 cell line transplanted subcutaneously", "set-up": "species or system BALB/cAnN.Cg-Foxnl^nu/CrlNarl nude mice", "settings": "nude mice", "method": "The purpose of the method of drug screening is to evaluate the inhibitory ability of the active ingredients of currently used anticancer drugs against the growth, recurrence, or metastasis of TW-1 cell line, and BALB/cAnN.Cg-Foxnl^nu/CrlNarl nude mice were used as the animal model. The active ingredient of anticancer drug be used in the embodiment was Sorafenib.\nBALB/cAnN.Cg-Foxnl^nu/CrlNarl nude mice were grouped into 3 groups, control group (Control), low-dose Sorafenib group (10 mg/kg body weight (BD)) and high-dose Sorafenib group (50 mg/kg body weight (BD)), 5 mice in each group.\nTransplanting of TW-1 cell line into BALB/cAnN.Cg-Foxnl^nu/CrlNarl nude mice were processed with 5×10^5 cells by subcutaneous injection for evaluating the effect of anticancer drugs against TW-1 cell line.\nAfter the tumor grew to appropriate size (100-150 mm^3) that was able to be measured at the TW-1 cell line transplanted position, the mice were treated with Sorafenib (Sorafenib groups) or PBS (control group) once per three days, and tumor generation of the mice were measured for 30 days the tumor volume of mice were recorded once per five days."}}, "note": "Entries after “also recorded” stand apart in the source; their conditions may differ."}
{"smiles": "CNC(=O)c1cc(Oc2ccc(NC(=O)Nc3ccc(Cl)c(C(F)(F)F)c3)cc2)ccn1", "note": "[Sorafenib]", "values": [{"measurement": "cell growth", "setting": "TW-1 cell line [1]; 40 μM Sorafenib, 24 and 48 hours post-treatment", "value": "the cell growth was decreased; also recorded: had the ability to inhibit growth of TW-1 cell line, but TW-1 cell line was not killed"}, {"measurement": "sensitivity to Sorafenib (cell survival rate), TW-1 cell line compared with HTC cell line", "setting": "TW-1 cell line [1]; concentration lower than 10 μM, after treatment for 24 hours, HTC cell line as control", "value": "higher sensitivity"}, {"measurement": "drug tolerance of TW-1 cell line compared with HTC cell lines", "setting": "TW-1 cell line [1]; high concentration (up to 40 μM), more obvious after 48 hours post-treatment", "value": "much higher drug tolerance"}, {"measurement": "tumor volume of high-dose Sorafenib group vs low-dose Sorafenib group", "setting": "TW-1 cell line [2]; 50 mg/kg vs 10 mg/kg body weight, once per three days, 30 days", "value": "significantly higher than that in low-dose Sorafenib group mice"}, {"measurement": "tumor volume of Sorafenib treating groups vs control group", "setting": "TW-1 cell line [2]; 10 and 50 mg/kg body weight, once per three days, measured for 30 days", "value": "significantly higher than that in control group"}, {"measurement": "metastasis of TW-1 cell line to lung", "setting": "TW-1 cell line [2]; high-dose Sorafenib (50 mg/kg body weight), drug dependent", "value": "high-dose Sorafenib induced high metastasis"}]}
